The values that follow come from US20110144281A1, “AMPHIPHILIC POLYMERS HAVING A CHOLANE CORE” (VALORISATION-RECHERCHE, SOCIETE EN COMMANDITE, priority 2007, published 2011).

Series [1] in a line: TEM of aggregates (freeze-fracture etching). It counts as physicochemical. The conditions noted are these: TEM images; sodium cholate at 0.040 molal, CA-PEG4 above CAC. The protocol: For transmission electron microscopy (TEM), different sample concentrations were prepared in milli-Q water for freeze-fracture. A small amount of these solutions were dropped onto a good sample carrier, and then frozen in liquid propane. The frozen samples were then mounted on the sample holder of a BAL-TEC freeze etching instrument (model BAF060). Samples were then fractured, let sublimate for less than 30 seconds before the newly created surface was coated from an angle of 45° (shadowed) with 2 nm of platinum-doped carbon. A 10 nm layer of carbon was then applied perpendicularly. The samples were placed in distilled water to make the platinum-carbon replica float on the water surface. They were then deposited on carbon-coated copper grids. The replicas were examined on a JEOL JEM-2000FX TEM operating at an acceleration voltage of 80 kV.
TEM images of the star polymers shown in FIG. 8 provide unequivocal evidence for the formation of micellar aggregates.

For series [2] the following is noted: literature (Reis et al. 2004); cited from earlier work.
Series [3] in a line: Loading of a drug: solubilisation of ibuprofen in water. It counts as physicochemical. The conditions noted are these: after vigorous agitation.

`C[C@H](CCC(=O)[O-])[C@H]1CC[C@H]2[C@@H]3[C@H](O)C[C@@H]4C[C@H](O)CC[C@]4(C)[C@H]3C[C@H](O)[C@]12C.[Na+]` [sodium cholate]: the shape of aggregates entry in series [1] is listed as “cylindrical”. In series [2], the “CAC of sodium cholate” value is 8 millimolal.

For the compound `CC(C)Cc1ccc(C(C)C(=O)O)cc1` (stereo not drawn) [Ibuprofen], the “solubility in neutral water” value in series [3] was “very limited”.
